Like-named read-outs stand apart in the source and are kept apart here.
Columns and labels:
A. fumigatus = experiment: MIC of 3'-deoxynucleosides in cell cultures (microtiter plates, 24 hours); type: cell-based; conditions: Aspergillus fumigatus
Description: (§1) Cell cultures of various organisms were established in microtiter plates and maintained for a period of 24 hours after the addition of a 3'-deoxynucleoside (3'-dA, 3'-dG, 3'-dC, 3'-dU) (Calbiochem; San Diego, Calif.; Fluka Chemical; Ronkonkoma, N.Y.; Pharmacia Biotech; Piscataway, N.J.) or amphotericin B in μg/ml (Sigma Chemical; St. Louis, Mo.) as control.

C. albicans = experiment: as above; type: cell-based; conditions: Candida albicans
Description: as §1

C. neoformans = experiment: as above; type: cell-based; conditions: Cryptococcus neoformans
Description: as §1

C. tropicalis = experiment: as above; type: cell-based; conditions: Candida tropicalis
Description: as §1

Rhizopus = experiment: as above; type: cell-based
Description: as §1

Candida albicans [1] = experiment: Mortality in Candida albicans infected mice; type: in vivo; conditions: ICR mice, 10^6 cfu C. albicans; for Survival After 25 Days: 10 days i.p.: 3'-deoxyadenosine 1.5, deoxycoformycin 0.4, amphotericin B 1.0 mg/kg/day, n=10, control 40%; for Survival After 15 Days: second experiment, 10 days i.p., same doses, n=8, control 0%
Description: Halen Sprague Dawley ICR mice were injected is with approximately 10^6 cfu of Candida albicans. Twenty-four hours after injection, mice were treated for 10 days with the indicated agents: 3'-deoxyadenosine (Sigma Chemical; St. Louis, Mo.) at 1.5 mg/kg/day i.p., deoxycoformycin (Sigma Chemical; St. Louis, Mo.) at 0.4 mg/kg/day i.p., amphotericin B (Sigma Chemical; St. Louis, Mo.) at 1.0 mg/kg/day i.p. Survival after 25 days is shown in Tables 2 and 3.

Candida albicans [2] = experiment: Time to reach LD50 in Candida albicans infected mice; type: in vivo; conditions: ICR mice, 10^6 cfu C. albicans; 10 days i.p.: 3'-deoxyadenosine 1.5, deoxycoformycin 0.4, amphotericin B 1.0 mg/kg/day; control 6
Description: Halen Sprague Dawley ICR mice were injected with approximately 10^6 cfu Candida albicans and treated for 10 days with the following agents: 3'-deoxyadenosine (Sigma Chemical; St. Louis, Mo.) at 1.5 mg/kg/day i.p., deoxycoformycin (Sigma Chemical; St. Louis, Mo.) at 0.4 mg/kg/day i.p., amphotericin B (Sigma Chemical; St. Louis, Mo.) at 1.0 mg/kg/day i.p. Time in days to reach LD50 is shown in Table 4.

8402 cells = experiment: Cytotoxicity to neoplastic cells in tissue culture; type: cell-based; conditions: 8402 (TdT-positive), in the presence of coformycin; read-out: cytotoxic IC50
Description: (§2) Cell lines were maintained in FCS/DMEM (GIBCO/BRL; Grand Island, N.Y.) at 37° C. with 5% CO2 and treated with cordycepin, coformycin or cordycepin plus coformycin, or remain untreated as controls. In the presence of coformycin, cordycepin was specifically cytotoxic at IC50 of less than 0.5 μM for the TdT-positive cells NALM-6, HPB-ALL, MOLT-4, CEM and 8402 cells. […] The earliest manifestations of cytotoxic damage by cordycepin in TdT (terminal deoxynudeotidyl tranferase)-positive cells was the emergence of classic features of apoptosis such as membrane blebbing, volume loss, chromatin clumping and inter-nucleosomal DNA digestion into 180 base pair (bp) multiples. In contrast, the cytotoxic damage seen when TdT-negative cells are exposed to high levels (greater than 5.0 μM) of cordycepin is associated with random DNA breakdown and necrosis. Since apoptosis in normal TdT-positive thymocytes is stimulated by protein kinase A (PK-A) activity, and inhibited by protein kinase C (PK-C) activity, PK-A and PK-C activities were measured in TdT-positive and TdT-negative cell lines after exposure to cordycepin.

CEM = experiment: Cytotoxicity to neoplastic cells in tissue culture; type: cell-based; conditions: CEM (TdT-positive), in the presence of coformycin; read-out: cytotoxic IC50
Description: as §2

HPB-ALL = experiment: Cytotoxicity to neoplastic cells in tissue culture; type: cell-based; conditions: HPB-ALL (TdT-positive), in the presence of coformycin; read-out: cytotoxic IC50
Description: as §2

MOLT-4 = experiment: Cytotoxicity to neoplastic cells in tissue culture; type: cell-based; conditions: MOLT-4 (TdT-positive), in the presence of coformycin; read-out: cytotoxic IC50
Description: as §2

NALM-6 = experiment: Cytotoxicity to neoplastic cells in tissue culture; type: cell-based; conditions: NALM-6 (TdT-positive), in the presence of coformycin; read-out: cytotoxic IC50
Description: as §2

protein kinase A (PK-A) = experiment: PK-A activity in TdT-positive and TdT-negative cell lines after exposure; type: cell-based
Description: (§3) Cell lines were maintained in FCS/DMEM (GIBCO/BRL; Grand Island, N.Y.) at 37° C. with 5% CO2 and treated with cordycepin, coformycin or cordycepin plus coformycin, or remain untreated as controls. […] Since apoptosis in normal TdT-positive thymocytes is stimulated by protein kinase A (PK-A) activity, and inhibited by protein kinase C (PK-C) activity, PK-A and PK-C activities were measured in TdT-positive and TdT-negative cell lines after exposure to cordycepin.

protein kinase C (PK-C) = experiment: PK-C activity in TdT-positive and TdT-negative cell lines after exposure; type: cell-based
Description: as §3

[3] = A. fumigatus, 24 hours, read-out: MIC
[4] = C. albicans, 24 hours, read-out: MIC
[5] = C. neoformans, 24 hours, read-out: MIC
[6] = C. tropicalis, 24 hours, read-out: MIC

| MIC (A. fumigatus; [3]) | MIC (C. albicans; [4]) | MIC (C. neoformans; [5]) | MIC (C. tropicalis; [6]) | MIC (Rhizopus; 24 hours, read-out: MIC) | Structure (SMILES) | Survival After 25 Days (Candida albicans [1]) | Survival After 15 Days (Candida albicans [1]) | Days to Reach LD50 (Candida albicans [2]) | also measured |
| --- | --- | --- | --- | --- | --- | --- | --- | --- | --- |
| 20 µM | > 20 µM | > 20 µM | > 20 µM | > 20 µM | Nc1ccn([C@@H]2O[C@H](CO)C[C@H]2O)c(=O)n1 [3'-dC] |  |  |  |  |
| > 20 µM | > 20 µM | > 20 µM | > 20 µM | > 20 µM | Nc1nc2c(ncn2[C@@H]2O[C@H](CO)C[C@H]2O)c(=O)[nH]1 [3'-dG] |  |  |  |  |
| > 20 µM | > 20 µM | > 20 µM | > 20 µM | > 20 µM | O=c1ccn([C@@H]2O[C@H](CO)C[C@H]2O)c(=O)[nH]1 [3'-dU] |  |  |  |  |
|  |  |  |  |  | C[C@@H]1[C@H](O)[C@@H](C)/C=C/C=C/C=C/C=C/C=C/C=C/C=C/[C@H](O[C@@H]2O[C@H](C)[C@@H](O)[C@H](N)[C@@H]2O)C[C@@H]2O[C@](O)(C[C@@H](O)C[C@@H](O)[C@H](O)CC[C@@H](O)C[C@@H](O)CC(=O)O[C@H]1C)C[C@H](O)[C@H]2C(=O)O [Amphotericin B, amphotericin B] | 90% | 50.0% | > 30 days | MIC (A. fumigatus; 24 h): 1.25 µg/mL; MIC (C. albicans; 24 h): < 0.6 µg/mL; MIC (C. neoformans; 24 h): 2.5 µg/mL; MIC (C. tropicalis; 24 h): 1.25 µg/mL; MIC (Rhizopus; 24 h): 2.5 µg/mL |
|  |  |  |  |  | OC[C@H]1O[C@@H](n2cnc3c2NC=NC[C@H]3O)C[C@@H]1O [deoxycoformycin] | 30% | 25.0% | 5 days |  |

| Structure (SMILES) | MIC (A. fumigatus; [3]) | MIC (C. albicans; [4]) | MIC (C. neoformans; [5]) | MIC (C. tropicalis; [6]) | MIC (Rhizopus; 24 hours, read-out: MIC) | Survival After 25 Days (Candida albicans [1]) | Survival After 15 Days (Candida albicans [1]) | Days to Reach LD50 (Candida albicans [2]) | also measured |
| --- | --- | --- | --- | --- | --- | --- | --- | --- | --- |
| Nc1ncnc2c1ncn2[C@@H]1O[C@H](CO)C[C@H]1O [3'-dA, 3'-deoxyadenosine] | 5 µM | 20 µM | 20 µM | 20 µM | > 20 µM | 30% | 37.5% | 9.5 days | IC50 (8402 cells): < 500 nM; IC50 (CEM): < 500 nM; IC50 (HPB-ALL): < 500 nM; IC50 (MOLT-4): < 500 nM; IC50 (NALM-6): < 500 nM; PK-A activity change (protein kinase A (PK-A); TdT-negative cells): unchanged; PK-A activity increase (protein kinase A (PK-A); TdT-positive cells, within 2 hours of exposure): 8-10 fold; PK-C activity change (protein kinase C (PK-C); TdT-negative cells): unchanged; PK-C activity change (protein kinase C (PK-C); TdT-positive cells): unchanged |

From patent US5679648A, “Methods for the treatment and prevention of fungal infections by administration of 3'-deoxypurine nucleosides” (The University Hospital, priority 1994, dated 1997)
